Where “and” joins values, the source holds several entries; their conditions need not be identical. Equal values may be shown once.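 1) Cells in 96-well plates. 2) Compound, 48 h, 5 concentrations. 3) Linear interpolation between surrounding doses. 4) Unreached endpoint = highest concentration. Abbreviation: GI50, concentration required for 50% inhibition of growth. TGI: concentration producing complete growth inhibition.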
Tests used:
Assay in all cases: NCI anticancer screen, dose series, 48 h
K-562 leukemia = tested on: K-562 leukemia
SF-539 CNS = tested on: SF-539 CNS
HCT-116 colon = tested on: HCT-116 colon
NCI-H460 lung = tested on: NCI-H460 lung
CCRF-CEM leukemia = tested on: CCRF-CEM leukemia
MDA-MB-231 breast = tested on: MDA-MB-231 breast
RPMI-8226 leukemia = tested on: RPMI-8226 leukemia
IGROV1 ovarian = tested on: IGROV1 ovarian
ACHN renal = tested on: ACHN renal
HCC-2998 colon = tested on: HCC-2998 colon

Compound | GI50 (K-562 leukemia) [nM] | TGI (K-562 leukemia) | GI50 (SF-539 CNS) [nM] | TGI (SF-539 CNS) | GI50 (HCT-116 colon) [nM] | TGI (HCT-116 colon) | GI50 (NCI-H460 lung) [nM] | TGI (NCI-H460 lung) | GI50 (CCRF-CEM leukemia) [µM] | TGI (CCRF-CEM leukemia) | GI50 (MDA-MB-231 breast) [µM] | TGI (MDA-MB-231 breast) [µM] | GI50 (RPMI-8226 leukemia) [nM] | TGI (RPMI-8226 leukemia) | GI50 (IGROV1 ovarian) [nM] | TGI (IGROV1 ovarian) | GI50 (ACHN renal) [nM] | TGI (ACHN renal) [µM] | GI50 (HCC-2998 colon) [nM] | TGI (HCC-2998 colon)
Cn1c(C(=O)c2cccc3ccccc23)nc2ccccc21 | > 100000 | > 100 µM | > 100000 | > 100 µM | > 100000 | > 100 µM | > 100000 | > 100 µM | > 100 | > 100 µM | > 100 | > 100 | > 100000 | > 100 µM | > 100000 | > 100 µM | > 100000 | > 100 | > 100000 | > 100 µM
O=C(c1ccco1)c1c(C(F)(F)F)n([O-])c2cc(F)c(F)cc2[n+]1=O | 79 | 8.34 µM | 329 | 0.679 µM | 149 | 0.386 µM | 252 | 5.78 µM |  | > 23 µM | 0.14 | 0.313 |  | 0.341 µM | 1070 | 3.31 µM | 122 | 0.256 |  | 0.0145 µM
C=C1C(=O)O[C@H]2[C@H]1CC/C(COC(=O)NCc1c[nH]c3ccc(F)cc13)=C\CC[C@@]1(C)O[C@@H]21 | 291 | 1.86 µM | 1630 | 3.36 µM | 703 | 2.04 µM | 2400 | 6.03 µM | 0.302 | 1.2 µM | 1.63 | 3.16 | 456 | 2.27 µM | 1540 | 3.34 µM | 1360 | 2.67 | 1770 | 3.41 µM
O=S(=O)(NCCCNc1nccc(-c2c(-c3ccc(F)cc3)nc3sccn23)n1)c1ccc(F)cc1 | 4620 | > 100 µM | 42100 | > 100 µM | 5550 | > 100 µM | 5620 | > 100 µM | 3.91 | > 100 µM | 14.2 | > 100 | 5290 | 86 µM | 8850 | > 100 µM | 4610 | > 100 | 20600 | > 100 µM
COCCOCCOCCOCCOC(=O)OC[n+]1ccc(NC(=NCCCCCCOc2ccc(Cl)cc2)NC#N)cc1 | 4580 | 20.5 µM | < 10 | 13.7 µM | < 10 | 11.8 µM | 124 | 19.2 µM | < 0.01 | 15 µM | 5.19 | 23.7 | < 10 | 3.13 µM | 465 | 24.7 µM | 10800 | 23.4 | 564 | 20.5 µM
COc1cc(C(=O)/C=C/c2c(C(F)(F)F)nc3ccccn23)cc(OC)c1OC | 2830 | > 100 µM | 1630 | 3.22 µM | 1260 | 3.21 µM | 2010 | 13.4 µM | 4.15 | > 100 µM | 4.59 | 19.3 | 2910 | > 100 µM | 2230 | 6.02 µM | 1950 | 3.79 | 1830 | 3.38 µM
[Cl][Cu][Cl] | > 10000 | > 10 µM | > 10000 | > 10 µM | > 10000 | > 10 µM | > 10000 | > 10 µM | > 10 | > 10 µM | > 10 | > 10 | > 10000 | > 10 µM | > 10000 | > 10 µM | > 10000 | > 10 | > 10000 | > 10 µM
C#CCNC(=O)NC(CCCCNC(=O)OCc1ccccc1)C(=O)OCc1ccccc1 (stereo unspecified) |  | > 100 µM |  | 71.9 µM |  | > 100 µM |  | > 100 µM |  | > 100 µM |  | > 58.7 |  | 70.9 µM |  | > 100 µM |  | > 100 |  | > 74.1 µM
N#Cc1c(NC(=O)c2ccccc2F)sc2c1CCCC2 | 5070 | > 25 µM | > 25000 | > 25 µM | > 25000 | > 25 µM | > 19500 | > 25 µM | > 25 | > 25 µM | > 23.5 | > 25 | > 25000 | > 25 µM | > 25000 | > 25 µM | > 25000 | > 25 | 13400 | > 25 µM
CC(C)N(Cc1ccc(F)cc1)c1ccc(CO)c(Cl)c1 | 468 | 12.9 µM | 13400 | 26.5 µM | 41.5 | 3.75 µM | 144 | 10.7 µM | 12.1 | 33.4 µM | 12.4 | 25.6 | 1460 | 20.1 µM | 47.9 | 0.266 µM | 8080 | 20.9 | 2810 | 20 µM
COc1c(CC=C(C)C)c(O)c(C(CC(C)C)c2c(O)c(CC=C(C)C)c(O)c(C(C)=O)c2O)c(O)c1C(C)=O (stereo unspecified) |  | 5.71 µM |  | 7.76 µM |  | 1.6 µM |  | 10.2 µM |  | 1.65 µM |  | 7.66 |  | 4.17 µM |  | 13.4 µM |  | 10.9 |  | 1.69 µM
O=C1/C(=C/c2ccccc2[N+](=O)[O-])COc2ccc(O)cc21 | 528 | > 100 µM | 1710 | 4.27 µM | 352 | 1.57 µM | 2100 | 5.04 µM | 0.326 | 2.52 µM | 1.77 | 3.69 | 612 | 5 µM | 529 | 2.08 µM | 740 | 2.13 | 1510 | 2.94 µM
COc1cc(-c2ncn(/C=C\c3nnco3)n2)cc(C(F)(F)F)c1 | 122 | > 100 µM | 29.5 | 0.581 µM | 153 | 13.5 µM | 43.1 | > 100 µM | 0.194 | > 100 µM | 0.208 | > 71.2 | 102 | > 89.1 µM | 1890 | > 100 µM | 318 | > 100 | 215 | 4.5 µM
C=CCN(CC=C)C(=O)[C@H](CC)[C@@H]1CC[C@@H](C)[C@@H]([C@H](C)[C@@H](O)[C@@H](C)C(=O)[C@H](CC)C2O[C@]3(C=C[C@@H](O)[C@]4(CC[C@@](C)([C@H]5CC[C@](O)(CC)[C@H](C)O5)O4)O3)[C@H](C)C[C@@H]2C)O1 (stereo partly specified) | 2640 | 11 µM | 1970 | 3.91 µM | 2810 | 10.1 µM | 1970 | 4.35 µM | 3.19 | 11.5 µM | 1.77 | 3.84 | 1620 | 5.43 µM | 2410 | 8.53 µM | 2900 | 11 | 2410 | 7.26 µM
CSC1=Nc2c(c(C)c(-c3ccccc3)n2COC(CO)CO)C2=NC(=O)CN12 | > 100000 | > 100 µM | > 100000 | > 100 µM | > 100000 | > 100 µM | > 100000 | > 100 µM | > 100 | > 100 µM | > 100 | > 100 | > 100000 | > 100 µM | 421 | 42.8 µM | > 100000 | > 100 | > 100000 | > 100 µM
CN(C)c1nc(N)c(C#N)c(C#N)c1C#N |  | > 7.15 µM |  | > 10 µM |  | > 10 µM |  | > 10 µM |  | > 10 µM |  | > 10 |  | > 10 µM |  | > 10 µM |  | > 10 |  | > 10 µM
Nc1nc(-c2ccc(Cl)cc2)nc2c1sc(=S)n2-c1ccccc1 | 4750 | > 100 µM | 1620 | 3.29 µM | 2940 | 10.9 µM | 3310 | 10.2 µM | 27 | > 100 µM | 3.44 | 10.6 | 5540 | > 100 µM | 3300 | 17 µM | 1830 | 3.82 | 7520 | 50.2 µM
NCc1ccc(-c2nc(-c3ccc(Cl)c(O)c3)c(-c3ccncc3)[nH]2)cc1 | > 25000 | > 25 µM | > 25000 | > 25 µM | 15900 | > 25 µM | > 25000 | > 25 µM | > 25 | > 25 µM | 11.7 | > 25 | > 25000 | > 25 µM | > 25000 | > 25 µM | > 25000 | > 25 | > 25000 | > 25 µM
COc1ccc(-c2[nH]c3ccccc3c2/C=C(\C#N)S(=O)(=O)c2ccccc2)cc1 | 535 | > 100 µM | 299 | 1.13 µM | 391 | > 38 µM | 404 | > 100 µM | 0.807 |  | 0.58 | > 60.8 | 2140 | > 100 µM | 3440 |  | 1910 | > 100 | 1110 | 5.99 µM
COc1ccc(/C=N\Nc2nc(SCC(C)C)nc(-c3ccc(OC)cc3)c2C#N)cc1 | 19100 | > 100 µM | 6280 | 20.1 µM | 679 | 15.3 µM | 548 | 11 µM | 9.78 | > 100 µM | 6.66 | 25 | 5480 | > 100 µM | 1920 | 20 µM | 710 | 2.37 | 24700 | 99.4 µM
O=S(=O)(NCCCNc1cc(-c2cn(-c3ccccc3)nc2-c2cccc(O)c2)ccn1)c1ccc(F)cc1 | 2400 | 6.38 µM | 2990 | 15.8 µM | 2910 | 11.7 µM | 3640 | 13.9 µM | 2.45 | 9.41 µM | 2.48 | 7.19 | 2230 | 7.63 µM | 4290 | 33.5 µM | 3520 | 33.8 | 2200 | 4.52 µM
C/C(=N\NC(=S)N1CCN(c2ccccn2)CC1)c1ncccn1 |  | 1.35 µM and 4.46 µM | 655 | 6.38 µM and 15.9 µM |  | 5.05 µM and 14.7 µM | 53.8 | 5.88 µM and 14 µM |  | 2.06 µM and 11.4 µM |  | 19.4 | < 20.5 | 2.94 µM and 12.1 µM | < 12.1 | 4.31 µM and 16.3 µM | 87.1 | 12.1 | 177 | 5.21 µM and 13.5 µM

Reference: PubChem BioAssay (NCI)
